Results: PubChem BioAssay (NCI)
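Step 1: Grow cells in 96-well plates. Step 2: Expose to compound for 48 hours at 5 concentrations. Step 3: Interpolate endpoints linearly; if unreached, use highest concentration. GI50 = concentration required for 50% inhibition of growth. TGI: concentration producing complete growth inhibition.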

What was measured:
Experiment in all cases: growth of human tumour cells (NCI), 48 h
[1] = system: HT29 colon
[2] = system: HOP-62 NSCLC
[3] = system: SN12C renal
[4] = system: NCI-H460 lung
[5] = system: OVCAR-8 ovarian
[6] = system: SNB-75 CNS
[7] = system: SK-MEL-2 melanoma
[8] = system: COLO 205 colon
[9] = system: UACC-257 melanoma
[10] = system: NCI-H23 lung

Compound | GI50 [1] [µM] | TGI [1] [µM] | GI50 [2] [µM] | TGI [2] [µM] | GI50 [3] [µM] | TGI [3] [µM] | GI50 [4] [µM] | TGI [4] [µM] | GI50 [5] [µM] | TGI [5] [µM] | GI50 [6] [µM] | TGI [6] [µM] | GI50 [7] [µM] | TGI [7] [µM] | GI50 [8] [µM] | TGI [8] [µM] | GI50 [9] [µM] | TGI [9] [µM] | GI50 [10] [µM] | TGI [10] [µM]
Cc1cc(N2CCCCC2)nc(NCc2cc(Nc3ccnc4cc(Cl)ccc34)ccc2F)n1 | 0.795 | 2.21 | 1.4 | 2.89 | 1.67 | 3.62 | 1.99 | 4.17 | 2.05 | 4.68 | 1.39 | 2.83 | 1.89 | 3.59 | 0.329 | 1.4 | 1.32 | 2.85 | 1.83 | 4.92
CN(C)C=O.CN(C)C=O.CN1C(C(=O)Nc2ccccn2)=C([O-])c2ccccc2S1(=O)=O.CN1C(C(=O)Nc2ccccn2)=C([O-])c2ccccc2S1(=O)=O.[Cu+2] | – | > 100 | – | 78.8 | – | > 100 | 32.5 | > 100 | – | > 100 | – | 49.5 | – | > 100 | – | > 100 | – | > 100 | – | 57
COc1ccc2c(c1)C(=O)c1c-2n(CCCCl)c(=O)c2cc([N+](=O)[O-])ccc12 | 0.0917 | > 100 | – | – | – | > 20.3 | < 0.0178 | – | 0.289 | > 100 | – | > 100 | 3.56 | > 95.6 | 0.902 | > 100 | 1.59 | 98.5 | 0.107 | –
NS(=O)(=O)c1ccc(C(=O)O)cc1 | – | > 100 | – | > 100 | – | > 100 | – | – | – | > 100 | – | – | – | > 100 | – | > 100 | – | – | – | > 100
Cc1nc2ccccc2c(=O)n1Nc1ccc(C(=O)O)cc1 | – | > 100 | – | > 100 | – | > 100 | – | > 100 | – | > 100 | – | > 100 | – | > 100 | – | > 100 | – | > 100 | – | > 100
O=C(O)\C=C/C=C/C=C/C=C/C(=O)O | – | > 100 | – | > 100 | – | > 100 | – | > 100 | – | > 100 | – | > 100 | – | > 100 | – | > 100 | – | > 100 | – | > 100
O=C1CC(c2ccccc2)NCCCCN2CC(CN1)C(C(O)c1ccccc1)C2=O (centres undefined) | – | > 100 | – | > 100 | – | > 100 | – | > 100 | – | > 100 | – | > 100 | – | > 100 | – | > 100 | – | > 100 | – | > 100
Nc1ccc([As](=O)(O)O)cc1 | – | > 100 | – | > 100 | – | > 100 | – | > 100 | – | > 100 | – | > 100 | – | > 100 | – | > 100 | – | > 100 | – | > 100
Cc1cccc(NC(N)=S)c1 | – | > 100 | – | > 100 | – | > 100 | – | > 100 | – | – | – | > 100 | – | > 100 | – | – | – | > 100 | – | > 100
O=C(Nc1ccc(-n2ccc3c(NC(=O)c4ccccc4)ncnc32)cc1)Nc1ccc(Cl)c(C(F)(F)F)c1 | 1.52 | 3.14 | 2.16 | 4.45 | 2.43 | 6.58 | 1.35 | 3.06 | – | – | 1.67 | 8.08 | 2.44 | 5.66 | 2.63 | 5.86 | 2.76 | 6.39 | 2.19 | 5.28
CC1(C)CCc2cc3c(cc2O1)OC(C)(C)CC3=O | – | > 100 | – | > 100 | – | > 100 | – | > 100 | – | > 100 | – | > 100 | – | > 100 | – | > 100 | – | – | – | > 100
CC(C)(c1ccccc1)c1ccc(Oc2ccc3c(c2)-c2nc-3nc3[nH]c(nc4nc(nc5[nH]c(n2)c2ccc(Oc6ccc(C(C)(C)c7ccccc7)cc6)cc52)-c2cc(Oc5ccc(C(C)(C)c6ccccc6)cc5)ccc2-4)c2ccc(Oc4ccc(C(C)(C)c5ccccc5)cc4)cc32)cc1 | – | > 100 | – | > 100 | – | – | – | > 100 | – | > 100 | – | 67.8 | – | > 100 | – | > 100 | – | > 100 | – | > 100
CCc1cc(C)cc2[n+]1CC=C2C | – | > 100 | – | > 100 | – | > 100 | – | > 100 | – | > 100 | – | > 100 | – | > 100 | – | > 100 | – | > 100 | – | > 100
COc1ccc(C(=O)NNC(=O)c2nsc3ccccc23)cc1 | – | > 100 | – | > 100 | – | > 100 | – | – | – | > 100 | – | – | – | > 100 | – | > 100 | – | > 100 | – | > 100
